Measurements taken from patent US20220332700A1, “NOVEL APOPTOSIS SIGNAL-REGULATING KINASE 1 INHIBITORS” (MANKIND PHARMA LTD, priority 2019, published 2022).

Tests used:
recombinant ASK1 = biological target: T1, recombinant ASK1 (Homo sapiens, UniProt Q99683); test: ASK1 Biochemical Assay (HTRF KinEASE-STK S3); conditions: ATP 100 μM; read-out: Biochemical Assay IC50
T1 construct: purchased Carna Biosciences
In short: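 Recombinant ASK1 (5 ng) preincubated with compound 1 h at 23 °C in MOPS pH 7 buffer with Mg-acetate, DTT, NP40, glycerol, BSA and 1% DMSO. Inhibition calculated against vehicle after substrate-blank subtraction.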

Human ASK1 = biological target: T2, Human ASK1 (Homo sapiens, UniProt Q99683); test: ASK1 Cell Based Assay (phospho p38 read out in hASK1 transfected HEK293T-AP1 cells); conditions: HEK293T-AP1 cells, 1 mM hydrogen peroxide, phospho p38; read-out: Cell Based Assay IC50
T2 construct: expressed in transfected cells; host or cells: HEK293T-AP1
T2 sequence (Q99683 1-1374): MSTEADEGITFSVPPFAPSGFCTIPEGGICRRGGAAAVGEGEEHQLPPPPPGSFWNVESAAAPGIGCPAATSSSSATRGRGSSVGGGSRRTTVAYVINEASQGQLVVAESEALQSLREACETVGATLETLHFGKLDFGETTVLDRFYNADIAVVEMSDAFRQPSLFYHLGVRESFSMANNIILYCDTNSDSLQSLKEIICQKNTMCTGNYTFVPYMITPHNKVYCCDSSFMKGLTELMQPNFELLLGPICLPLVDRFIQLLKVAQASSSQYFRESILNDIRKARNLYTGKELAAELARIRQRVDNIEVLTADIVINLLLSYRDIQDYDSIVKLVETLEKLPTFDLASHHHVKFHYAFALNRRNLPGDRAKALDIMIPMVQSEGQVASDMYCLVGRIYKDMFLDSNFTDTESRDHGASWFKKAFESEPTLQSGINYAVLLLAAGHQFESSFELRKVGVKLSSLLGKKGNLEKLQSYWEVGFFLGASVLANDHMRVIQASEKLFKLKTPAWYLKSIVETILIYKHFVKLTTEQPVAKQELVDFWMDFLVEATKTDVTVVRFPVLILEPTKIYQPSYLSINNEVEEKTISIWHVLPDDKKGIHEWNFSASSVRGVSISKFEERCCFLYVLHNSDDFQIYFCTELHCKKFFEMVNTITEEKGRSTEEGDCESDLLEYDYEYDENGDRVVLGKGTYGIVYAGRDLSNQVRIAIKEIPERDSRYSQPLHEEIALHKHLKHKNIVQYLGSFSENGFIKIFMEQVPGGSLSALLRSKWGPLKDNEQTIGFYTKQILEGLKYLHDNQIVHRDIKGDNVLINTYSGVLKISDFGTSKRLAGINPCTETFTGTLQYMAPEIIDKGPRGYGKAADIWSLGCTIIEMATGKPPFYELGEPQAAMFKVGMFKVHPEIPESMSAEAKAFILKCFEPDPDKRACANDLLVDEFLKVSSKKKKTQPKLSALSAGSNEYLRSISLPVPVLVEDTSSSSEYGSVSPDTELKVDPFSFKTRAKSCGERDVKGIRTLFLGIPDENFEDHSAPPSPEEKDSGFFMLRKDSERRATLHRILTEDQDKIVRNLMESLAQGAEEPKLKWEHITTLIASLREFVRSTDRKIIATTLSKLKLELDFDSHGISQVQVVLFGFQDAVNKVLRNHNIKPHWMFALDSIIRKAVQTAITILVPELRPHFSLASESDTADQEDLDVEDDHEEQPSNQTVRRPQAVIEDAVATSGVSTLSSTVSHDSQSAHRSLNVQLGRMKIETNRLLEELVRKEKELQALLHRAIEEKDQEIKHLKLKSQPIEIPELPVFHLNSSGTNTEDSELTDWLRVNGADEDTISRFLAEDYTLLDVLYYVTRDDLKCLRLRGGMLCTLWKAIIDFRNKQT
In short: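 HEK293T-AP1 cells transfected with hASK1, after 24 h treated with compounds for 24 h (0.2% DMSO), then stimulated with 1 mM H2O2 for 1 h with compounds present.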

SMILES | IC50 (recombinant ASK1) | IC50 (Human ASK1)
CC(C)n1cnnc1-c1cccc(N2CCN(c3ccc(NC4CCOC4)cc3)C2=O)n1 (stereo not shown) [Example 1133, 1-(6-(4-isopropyl-4H-1,2,4-triazol-3-yl)pyridin-2-yl)-3-(4-(tetrahydrofuran-3-ylamino)phenyl)imidazolidin-2-one] | < 0.1 µM | > 1 µM
CC(C)C(C#N)C1CN(c2ccc(N3CCN(c4cccc(-c5nncn5C(C)C)n4)C3=O)cc2)C1 (stereo not shown) [Example 1134, 2-(1-(4-(3-(6-(4-isopropyl-4H-1,2,4-triazol-3-yl)pyridin-2-yl)-2-oxoimidazolidin-1-yl)phenyl)azetidin-3-yl)-3-methylbutanenitrile] | < 0.1 µM | > 1 µM
CC(C)n1cnnc1-c1cccc(N2CCN(c3ccc(N4CCN(C)C(=O)C4)cc3)C2=O)n1 [Example 1135, 4-(4-(3-(6-(4-isopropyl-4H-1,2,4-triazol-3-yl)pyridin-2-yl)-2-oxoimidazolidin-1-yl)phenyl)-1-methylpiperazin-2-one] | < 0.1 µM | > 1 µM
CNC(=O)N1CCN(c2ccc(N3CCN(c4cccc(-c5nncn5C(C)C)n4)C3=O)cc2)CC1 [Example 1136, 4-(4-(3-(6-(4-isopropyl-4H-1,2,4-triazol-3-yl)pyridin-2-yl)-2-oxoimidazolidin-1-yl)phenyl)-N-methylpiperazine-1-carboxamide] | < 0.1 µM | > 0.1 µM
CC(C)n1cnnc1-c1cccc(N2CCN(c3ccc(N4CCN(C(=O)CC#N)CC4)cc3)C2=O)n1 [Example 1137, 3-(4-(4-(3-(6-(4-isopropyl-4H-1,2,4-triazol-3-yl)pyridin-2-yl)-2-oxoimidazolidin-1-yl)phenyl)piperazin-1-yl)-3-oxopropanenitrile] | < 0.1 µM | > 0.1 µM
CC(C)n1cnnc1-c1cccc(N2CCN(c3ccc(N4CCC(F)CC4)cc3)C2=O)n1 [Example 1138, 1-(4-(4-fluoropiperidin-1-yl)phenyl)-3-(6-(4-isopropyl-4H-1,2,4-triazol-3-yl)pyridin-2-yl)imidazolidin-2-one] | < 0.1 µM | > 0.1 µM
CNC1(C2CCN(c3ccc(N4CCN(c5cccc(-c6nncn6C(C)C)n5)C4=O)cc3)CC2)COC1 [Example 1139, 1-(6-(4-isopropyl-4H-1,2,4-triazol-3-yl)pyridin-2-yl)-3-(4-(4-(3-(methylamino)oxetan-3-yl)piperidin-1-yl)phenyl)imidazolidin-2-one] | < 0.1 µM | > 0.1 µM
CNC(=O)C1CC2CCC(C1)N2c1ccc(N2CCN(c3cccc(-c4nncn4C(C)C)n3)C2=O)cc1 (stereo not shown) [Example 1140, 8-(4-(3-(6-(4-isopropyl-4H-1,2,4-triazol-3-yl)pyridin-2-yl)-2-oxoimidazolidin-1-yl)phenyl)-N-methyl-8-aza-bicyclo[3.2.1]octane-3-carboxamide] | < 0.05 µM | < 0.1 µM
